Measured values published in patent publication US9481676B2, “Azepino[4,5-B]indoles and methods of use” (Medivation Technologies, Inc., priority 2008, dated 2016).

Columns and labels:
[1] = target: T1, human recombinant histamine H2 receptor (Homo sapiens, UniProt P25021); test: Histamine H2 radioligand binding ([125I]Aminopotentidine); settings: compound at 1 μM; read-out: Histamine Binding (1 μM) H2, percent inhibition of specific binding
T1 construct: expressed in transfected cells; host or cells: CHO-K1 cells
Method in brief: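 Membranes from CHO-K1 cells expressing recombinant human H2 receptor, in 50 mM phosphate buffer pH 7.4, incubated with 0.1 nM [125I]aminopotentidine for 120 min at 25 °C; nonspecific binding defined with 3 μM tiotidine.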

[2] = target: T2, human recombinant dopamine D2L receptor (Homo sapiens, UniProt P14416); test: Dopamine D2L radioligand binding ([3H]Spiperone); settings: compound at 1 μM; read-out: Dopamine (1 μM) D2L, percent inhibition of specific binding
T2 construct: expressed in transfected cells; host or cells: CHO cells
Method in brief: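 Binding measured by filtration and counting, reported as % inhibition of specific [3H]spiperone binding (0.16 nM tracer; 10 μM haloperidol for nonspecific). Compounds tested at ≤1 μM in 1% DMSO for 120 min at 25° C against CHO-expressed human D2L in pH 7.4 Tris-HCl buffer.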

[3] = target: T3, human recombinant adrenergic α2A receptor (Homo sapiens, UniProt P08913); test: Adrenergic alpha2A radioligand binding ([3H]MK-912); settings: compound at 1 μM; read-out: Adrenergic (1 μM) α2A, percent inhibition of specific binding
T3 construct: expressed in transfected cells; host or cells: insect Sf9 cells
T3 sequence (P08913 1-465): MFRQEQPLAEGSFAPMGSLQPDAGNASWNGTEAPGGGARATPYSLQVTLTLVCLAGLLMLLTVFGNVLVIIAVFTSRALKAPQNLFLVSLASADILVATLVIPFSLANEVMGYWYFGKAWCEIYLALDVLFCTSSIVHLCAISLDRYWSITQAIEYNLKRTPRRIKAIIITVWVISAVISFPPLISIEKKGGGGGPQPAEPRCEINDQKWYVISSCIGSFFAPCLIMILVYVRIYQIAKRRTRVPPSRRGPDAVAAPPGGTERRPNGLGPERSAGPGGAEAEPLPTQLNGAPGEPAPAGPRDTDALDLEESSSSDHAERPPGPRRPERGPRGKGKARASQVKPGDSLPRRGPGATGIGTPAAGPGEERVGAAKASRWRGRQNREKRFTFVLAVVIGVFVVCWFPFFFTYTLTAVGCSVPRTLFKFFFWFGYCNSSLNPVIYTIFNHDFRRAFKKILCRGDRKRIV
Method: To evaluate in radioligand binding assays the activity of compounds of the invention, human recombinant adrenergic α2A receptor expressed in insect Sf9 cells (Uhlen S et al. J Pharmacol Exp Ther. 271:1558, 1994) in a modified Tris-HCl buffer (50 mM Tris-HCl, pH 7.4, 12.5 mM MgCl2, 2 mM EDTA) was used. Compounds of invention were incubated with 1 nM [^3H]MK-912 for 60 min. at 25° C. MK912 is (2S-trans)-1,3,4,5′,6,6′,7,12b-octahydro-1′,3′-dimethyl-spiro[2 h-benzofuro [2,3-a]quinolizine-2,4′ (1′H)-pyrimidin]-2′ (3′H)-one hydrochloride Non-specific binding was estimated in the presence of 10 μM WB-4101 (2-(2,6-Dimethoxyphenoxyethyl)aminomethyl-1,4-benzodioxane hydrochloride). Receptor proteins were filtered and washed, the filters were then counted to determine [^3H]MK-912 specifically bound. Compounds were screened at 1 μM or lower, using 1% DMSO as vehicle. Biochemical assay results are presented as the percent inhibition of specific binding in Table 5.

[4] = target: T4, human recombinant serotonin (5-Hydroxytryptamine) 5-HT2C receptor (Homo sapiens, UniProt P28335); test: Serotonin 5-HT2C radioligand binding ([3H]Mesulergine); settings: compound at 1 μM; read-out: Serotonin (1 μM) 5-HT2C, percent inhibition of specific binding
T4 construct: expressed in transfected cells; host or cells: CHO-K1 cells
T4 sequence (P28335 33-458): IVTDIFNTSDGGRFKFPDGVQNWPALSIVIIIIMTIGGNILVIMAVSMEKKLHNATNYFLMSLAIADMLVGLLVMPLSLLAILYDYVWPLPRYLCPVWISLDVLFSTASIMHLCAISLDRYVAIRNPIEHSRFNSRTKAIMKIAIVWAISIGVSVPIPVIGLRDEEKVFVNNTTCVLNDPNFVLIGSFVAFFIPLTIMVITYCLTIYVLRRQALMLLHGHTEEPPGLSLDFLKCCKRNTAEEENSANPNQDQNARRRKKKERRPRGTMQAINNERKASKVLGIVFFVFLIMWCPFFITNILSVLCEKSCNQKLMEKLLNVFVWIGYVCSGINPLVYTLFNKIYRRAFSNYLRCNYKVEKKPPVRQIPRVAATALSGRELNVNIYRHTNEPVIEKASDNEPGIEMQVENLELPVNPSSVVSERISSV
Method in brief: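 Membranes from CHO-K1 cells expressing human 5-HT2C, incubated with 1 nM [3H]mesulergine for 60 min at 25 °C in 50 mM Tris-HCl pH 7.4 with ascorbic acid and pargyline.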

T2 sequence (P14416 whole entry): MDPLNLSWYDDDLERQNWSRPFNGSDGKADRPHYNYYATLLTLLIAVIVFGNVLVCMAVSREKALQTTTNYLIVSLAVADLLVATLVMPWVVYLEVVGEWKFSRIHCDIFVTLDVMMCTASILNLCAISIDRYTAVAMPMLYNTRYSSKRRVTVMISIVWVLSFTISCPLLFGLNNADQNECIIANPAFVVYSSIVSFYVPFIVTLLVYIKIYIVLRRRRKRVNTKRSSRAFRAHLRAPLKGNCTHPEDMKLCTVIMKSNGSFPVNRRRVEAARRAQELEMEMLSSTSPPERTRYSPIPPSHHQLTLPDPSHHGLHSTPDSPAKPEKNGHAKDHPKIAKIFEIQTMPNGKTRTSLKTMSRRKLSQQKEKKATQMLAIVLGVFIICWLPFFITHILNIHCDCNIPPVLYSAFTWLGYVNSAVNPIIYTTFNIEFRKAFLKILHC
T1 sequence (P25021 whole entry): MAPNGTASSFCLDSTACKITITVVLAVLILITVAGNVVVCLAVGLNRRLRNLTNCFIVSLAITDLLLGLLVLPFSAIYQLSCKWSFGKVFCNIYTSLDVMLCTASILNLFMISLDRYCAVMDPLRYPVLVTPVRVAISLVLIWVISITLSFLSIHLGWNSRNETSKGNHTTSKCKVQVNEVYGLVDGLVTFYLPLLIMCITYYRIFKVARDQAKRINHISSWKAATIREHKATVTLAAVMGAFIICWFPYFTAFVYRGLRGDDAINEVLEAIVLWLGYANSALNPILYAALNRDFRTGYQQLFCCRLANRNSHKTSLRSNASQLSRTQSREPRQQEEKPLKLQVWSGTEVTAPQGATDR

SMILES | inhibition at 1 µM [1] | inhibition at 1 µM [2] | inhibition at 1 µM [3] | inhibition at 1 µM [4]
CN1CCc2c(n(CCc3ccccc3Cl)c3ccc(Cl)cc23)CC1 [Compound No. 29, 6-(2-chlorophenethyl)-9-chloro-1,2,3,4,5,6-hexahydro-3-methylazepino[4,5-b]indole] | 105% | 67% | 101% | 101%
CN1CCc2c(n(CC(C)(O)c3ccc(Cl)cc3)c3ccc(Cl)cc23)CC1 (centres unmarked) [Compound No. 12, 1-(9-chloro-2,3,4,5-tetrahydro-3-methylazepino[4,5-b]indol-6(1H)-yl)-2-(4-chlorophenyl)propan-2-ol] | 98% | 45% | 101% | 92%
CN1CCc2c(n(CC(O)c3ccncc3)c3ccc(Cl)cc23)CC1 (centres unmarked) [Compound No. 42, 2-(9-chloro-2,3,4,5-tetrahydro-3-methylazepino[4,5-b]indol-6(1H)-yl)-1-(pyridin-4-yl)ethanol] | 45% | 8% | 87% | 101%
CN1CCc2c(n(/C=C/c3ccc(F)c(F)c3)c3ccc(Cl)cc23)CC1 [Compound No. 236, (E)-9-chloro-6-(3,4-difluorostyryl)-3-methyl-1,2,3,4,5,6-hexahydroazepino[4,5-b]indole] | 97% | 34% | 89% | 100%
Cc1ccc2c(c1)c1c(n2CCc2ccccc2)CCN(C)CC1 [Compound No. 62, 1,2,3,4,5,6-hexahydro-3,9-dimethyl-6-phenethylazepino[4,5-b]indole] | 79% | 7% | 11% | 101%
Cc1ccc(C(O)Cn2c3c(c4cc(C)ccc42)CCN(C)CC3)cc1 (centres unmarked) [Compound No. 27, 2-(2,3,4,5-tetrahydro-3,9-dimethylazepino[4,5-b]indol-6(1H)-yl)-1-p-tolylethanol] | 78% | 58% | 98% | 91%
Cc1ccc2c(c1)c1c(n2CC(=O)OC2CCCC2)CCN(C)CC1 [Compound No. 55, Cyclopentyl-2-(2,3,4,5-tetrahydro-3,9-dimethylazepino[4,5-b]indol-6(1H)-yl)acetate] | -3% | 6% | 12% | 32%
Cc1ccc(C(O)Cn2c3c(c4cc(Cl)ccc42)CCN(C)CC3)cc1 (centres unmarked) [Compound No. 26, 2-(9-chloro-2,3,4,5-tetrahydro-3-methylazepino[4,5-b]indol-6(1H)-yl)-1-p-tolylethanol] | 84% | 65% | 99% | 93%
C/C(=C\n1c2c(c3cc(C)ccc31)CCN(C)CC2)c1ccc(Cl)cc1 [Compound No. 33, 6-((E)-2-(4-chlorophenyl)prop-1-enyl)-1,2,3,4,5,6-hexahydro-3,9-dimethylazepino[4,5-b]indole] | 101% | 35% | 97% | 86%
Cc1ccc2c(c1)c1c(n2CCc2cncc(Cl)c2)CCN(C)CC1 [Compound No. 4, 6-(2-(5-chloropyridin-3-yl)ethyl)-1,2,3,4,5,6-hexahydro-3,9-dimethylazepino[4,5-b]indole] | 59% | 2% | 85% | 89%
C/C(=C\n1c2c(c3cc(Cl)ccc31)CCN(C)CC2)c1ccc(Cl)cc1 [Compound No. 36, 9-chloro-6-((E)-2-(4-chlorophenyl)prop-1-enyl)-1,2,3,4,5,6-hexahydro-3-methylazepino[4,5-b]indole] | 104% | 34% | 96% | 83%
CN1CCc2c(n(CCc3cncc(Cl)c3)c3ccc(Cl)cc23)CC1 [Compound No. 10, 9-chloro-6-(2-(5-chloropyridin-3-yl)ethyl)-1,2,3,4,5,6-hexahydro-3-methylazepino[4,5-b]indole] | 78% | 35% | 96% | 92%
CN1CCc2c(n(CC(O)c3ccc(F)c(F)c3)c3ccc(Cl)cc23)CC1 (centres unmarked) [Compound No. 58, 2-(9-chloro-2,3,4,5-tetrahydro-3-methylazepino[4,5-b]indol-6(1H)-yl)-1-(3,4-difluorophenyl)ethanol] | 91% | 47% | 95% | 16%
CN1CCc2c(n(CC(=O)N3CCCCC3)c3ccc(Cl)cc23)CC1 [Compound No. 57, 2-(9-chloro-2,3,4,5-tetrahydro-3-methylazepino[4,5-b]indol-6(1H)-yl)-1-(piperidin-1-yl)ethanone] | 1% | 10% | -1% | 65%
COc1ccc(C(O)Cn2c3c(c4cc(C)ccc42)CCN(C)CC3)cc1F (centres unmarked) [Compound No. 68, 1-(3-fluoro-4-methoxyphenyl)-2-(2,3,4,5-tetrahydro-3,9-dimethylazepino[4,5-b]indol-6(1H)-yl)ethanol] | 69% | 40% | 99% | 95%
Cc1ccc2c(c1)c1c(n2/C=C/c2ccccc2)CCN(C)CC1 [Compound No. 229, (E)-3,9-dimethyl-6-styryl-1,2,3,4,5,6-hexahydroazepino[4,5-b]indole] | 94% | 68% | 100% | 98%
CN1CCc2c(n(CC(O)c3cccnc3)c3ccc(Cl)cc23)CC1 (centres unmarked) [Compound No. 18, 2-(9-chloro-2,3,4,5-tetrahydro-3-methylazepino[4,5-b]indol-6(1H)-yl)-1-(pyridin-3-yl)ethanol] | 51% | 3% | 92% | 64%
CN1CCc2c(n(CCc3ccccc3F)c3ccccc23)CC1 [Compound No. 237, 6-(2-fluorophenethyl)-3-methyl-1,2,3,4,5,6-hexahydroazepino[4,5-b]indole] | 81% | 50% | 98% | 100%
Cc1ccc2c(c1)c1c(n2CC(O)c2ccc(C)nc2)CCN(C)CC1 (centres unmarked) [Compound No. 23, 2-(2,3,4,5-tetrahydro-3,9-dimethylazepino[4,5-b]indol-6(1H)-yl)-1-(6-methylpyridin-3-yl)ethanol] | -3% | 4% | 42% | 37%
CN1CCc2c(n(CCc3ccncc3)c3ccc(Cl)cc23)CC1 [Compound No. 5, 9-chloro-1,2,3,4,5,6-hexahydro-3-methyl-6-(2-(pyridin-4-yl)ethyl)azepino[4,5-b]indole] | 62% | 34% | 97% | 90%
